Where two headings read alike, the source gives them in different places. Marks after values point to notes of the source that are not given here.
Assays:
HCT116 cells [1] = experiment: Screen for potentiation of DNA damaging agents (MMS, camptothecin, cis-platinum, 3 aminobenzamide, ionizing radiation); assay type: cell-based, human; details: for MMS: Ratios of IC50 HCT116: compound alone vs combination with MMS (100 μM); for MMS: Ratios of IC50 HCT116 / IC50 ratios of non- and 3-AB treated cells HCT116: 1 = no sensitization; for IC50 ratios of non- and 3-AB treated cells HCT116: compound alone vs combination with 3-AB (2 mM)
From the text: (§1) The 192 human DNA ligase inhibitors were screened in parallel for effects on proliferation and the ability to potentiate the effects of several DNA damaging agents using two cell human lines, a colon cancer line HCT116 and a normal breast epithelial cell line MCF10A using a Biomek FX Laboratory Automation Workstation as described (23). The DNA damaging agents used, methyl methanesulfonate (MMS), camptothecin, cis-platinum, 3 aminobenzamide and ionizing radiation, are representatives of classes of agents used to treat cancer. Briefly, HCT116 and MCF10A cells were plated in 96 well plates such that the cultures were about 80% confluent after 5 days incubation. Compounds were added to the cultures at either 15 μM or 50 μM 1 day after plating. After incubation for 3 days, cell lysed in a solution containing 1.2% Igepal CA-630 and SYBR green that stains DNA (1:1000, Molecular Probes, Eugene, Oreg.). Subsequently, fluorescence was measured per well. The studies with DNA damaging agents were performed as follows. […] For ionizing radiation, cells were pre-incubated with the compounds at 50 μM for 1 hour prior to exposure to 2 gray of ionizing radiation. Cultures were incubated for 3 days and then treated as above.

HCT116 and MCF10A cells = experiment: Screen for potentiation of DNA damaging agents, cell line not stated with the result; assay type: cell-based, human; details: for radiosensitizer activity / synergy with PARP inhibitors / enhancement of the cytostatic effect of MMS: 50 μM; for radiosensitizer activity: 2 gray of ionizing radiation; for synergy with PARP inhibitors: 3 AB 2 mM; for cell survival: sensitivity to DNA damaging agent (IR, MMS): cell line not stated; for enhancement of the cytostatic effect of MMS: MMS 100 μM
From the text: as §1

MCF10A cells [2] = experiment: MTT cell growth assay; assay type: cell-based, human; details: for IC50: Homo sapiens, MCF-10A
Method in brief: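 Seeded at 300 cells/well and allowed to adhere overnight, then serial compound dilutions in medium added for 5 days. MTT added for a further 4 h, formazan dissolved in isopropanol, and absorbance read at 560 nm.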

MCF10A cells [3] = experiment: Screen for potentiation of DNA damaging agents (MMS, camptothecin, cis-platinum, 3 aminobenzamide, ionizing radiation); assay type: cell-based, human; details: for IC50 ratios of non- and 3-AB treated cells MCF10A: compound alone vs combination with 3-AB (2 mM); for IC50 ratios of non- and 3-AB treated cells MCF10A / MMS: Ratios of IC50 MCF10A: 1 = no sensitization; for Radiosensitizers: IC50 ratios MCF10A: ionizing radiation; for MMS: Ratios of IC50 MCF10A: compound alone vs combination with MMS (100 μM); for % growth inhibition MCF10A [2 Gy] 5-15 uM: with 2 Gy ionizing radiation, tick mark only
Method in brief: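 HCT116 colon cancer and MCF10A breast epithelial cells received compounds at 15 μM or 50 μM one day after plating; for ionizing radiation, cells were pre-incubated 1 h with 50 μM compound before 2 Gy. After 3 days, cells were lysed with Igepal CA-630 plus SYBR green, and DNA fluorescence served as the proliferation read-out.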

T4 DNA ligase = biological target: T1, T4 DNA ligase (Enterobacteria phage T4, UniProt P00970); experiment: Radioactive gel-based DNA ligation assay; assay type: biochemical, bacteriophage T4; details: FIG. 2B
T1 construct: purchased NEB
T1 sequence (P00970 1-487): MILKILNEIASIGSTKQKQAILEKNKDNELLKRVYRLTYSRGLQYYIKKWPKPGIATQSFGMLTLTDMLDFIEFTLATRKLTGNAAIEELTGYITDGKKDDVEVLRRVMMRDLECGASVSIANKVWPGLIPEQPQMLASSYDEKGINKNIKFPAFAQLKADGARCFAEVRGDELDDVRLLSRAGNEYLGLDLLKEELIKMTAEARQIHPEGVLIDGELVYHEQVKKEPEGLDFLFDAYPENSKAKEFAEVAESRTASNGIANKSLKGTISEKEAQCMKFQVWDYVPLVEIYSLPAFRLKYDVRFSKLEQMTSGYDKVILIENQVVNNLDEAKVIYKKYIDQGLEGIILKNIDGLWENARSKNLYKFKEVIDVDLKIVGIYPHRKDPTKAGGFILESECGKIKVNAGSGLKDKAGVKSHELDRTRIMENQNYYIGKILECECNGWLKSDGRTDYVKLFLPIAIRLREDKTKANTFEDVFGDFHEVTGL
Procedure: A radioactive gel-based DNA ligation assay was performed as previously described (22). A 25-mer (5′-CGCCAGGGTTTTCCCAGTCACGACC-3′), and a 5′-[^32P] end-labeled 18-mer (5′-GTA AAA CGA CGG CCA GTG-3′) were annealed to a complementary 44-mer oligonucleotide, generating a linear duplex with a central nick. DNA joining reactions (30 μL) containing 0.5 pmol of labeled DNA substrate, and hLigI (0.02 pmol), hLigIIIβ (0.02 pmol), hLigIV/XRCC4 (0.1 pmol), or T4 DNA ligase (0.02 pmol) in ligation buffer were incubated in the absence or presence of ligase inhibitors at 25° C. for 30 min.
The effect of Compounds 67, 82 and 189 on DNA joining by human DNA ligases I, III and IV and T4 DNA ligase was determined. The IC50 values determined for Compounds 67, 82 and 189 using the fluorescence-based DNA joining assay (22) are shown for each of the DNA ligases. The effect of Compounds 67, 82 and 189 on DNA joining by human DNA ligases I, III and IV and T4 DNA ligase was determined using the radioactive gel-based assay (24). Representative gels of DNA ligation assays. The results of three independent experiments are shown graphically.

HCT116 cells [4] = experiment: MTT cell growth assay; assay type: cell-based, human; details: for IC50: Homo sapiens
Method in brief: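 HCT116 cells (1200 per well) adhered overnight, then were exposed to serially diluted compounds for 5 days. MTT was added for 4 h, formazan dissolved in isopropanol and absorbance read at 560 nm as the growth measure.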

[5] = cell growth, compound alone, read-out: IC50 (μM) MCF10A
[6] = sections 'high concentrations (~50 μM)' and 'active in vitro that decreased cell growth', same figures given in μM elsewhere in Table 6, read-out: IC50 MCF10A (head without unit)
[7] = HCT-116, cell growth, compound alone, read-out: IC50 (μM) HCT116
[8] = HCT-116, sections 'high concentrations (~50 μM)' and 'active in vitro that decreased cell growth', same figures given in μM elsewhere in Table 6, read-out: IC50 HCT116 (head without unit)

O=C(O)CSc1cc(Cl)c2nonc2c1[N+](=O)[O-] [Compound 64]
MMS: Ratios of IC50 HCT116 (HCT116 cells [1]): 2** | radiosensitizer activity (HCT116 and MCF10A cells): act as radiosensitizers | synergy with PARP inhibitors (HCT116 and MCF10A cells): act synergistically with PARP inhibitors | cell survival: sensitivity to DNA damaging agent (IR, MMS) (HCT116 and MCF10A cells): IR sensitive | IC50 (MCF10A cells [2]; [5]): 50 µM | IC50 (MCF10A cells [2]; [6]): 50 µM | potentiation of the growth inhibitory effect of 3 aminobenzamide (MCF10A cells [2]; MCF10A cells, 3 aminobenzamide 2 mM, 5 days, MTT, FIG. 5B): markedly potentiates | IC50 ratios of non- and 3-AB treated cells MCF10A (MCF10A cells [3]): 2 | Radiosensitizers: IC50 ratios MCF10A (MCF10A cells [3]): 1.2

Cc1c(Br)cc(NCC(=O)N/N=C\c2cc([N+](=O)[O-])ccc2O)cc1Br [Compound 67]
inhibition of DNA joining by T4 DNA ligase (T4 DNA ligase): not significantly inhibited | IC50 ratios of non- and 3-AB treated cells HCT116 (HCT116 cells [1]): 1 | MMS: Ratios of IC50 HCT116 (HCT116 cells [1]): 1.4 | synergy with PARP inhibitors (HCT116 and MCF10A cells): act synergistically with PARP inhibitors | enhancement of the cytostatic effect of MMS (HCT116 and MCF10A cells): enhance the cytostatic effect of MMS | cell survival: sensitivity to DNA damaging agent (IR, MMS) (HCT116 and MCF10A cells): IR, MMS sensitive | IC50 (MCF10A cells [2]; [5]): 4 µM | IC50 (MCF10A cells [2]; [6]): 4 µM | IC50 ratios of non- and 3-AB treated cells MCF10A (MCF10A cells [3]): 1.7 | MMS: Ratios of IC50 MCF10A (MCF10A cells [3]): 1.2 | % growth inhibition MCF10A [2 Gy] 5-15 uM (MCF10A cells [3]): ✓ | IC50 (HCT116 cells [4]; [7]): 8 µM | IC50 (HCT116 cells [4]; [8]): 8 µM

O=c1[nH]ncc(N/N=C\c2ccc(O)c([N+](=O)[O-])c2)c1Cl [Compound 82]
inhibition of DNA joining by T4 DNA ligase (T4 DNA ligase): not significantly inhibited

O=C(Cn1cnc([N+](=O)[O-])n1)N/N=C/c1ccc(O)cc1O [Compound 151]
MMS: Ratios of IC50 HCT116 (HCT116 cells [1]): 1.7 | Radiosensitizers: IC50 ratios HCT116 (HCT116 cells [1]; ionizing radiation): 2 | radiosensitizer activity (HCT116 and MCF10A cells): act as radiosensitizers | enhancement of the cytostatic effect of MMS (HCT116 and MCF10A cells): enhance the cytostatic effect of MMS | cell survival: sensitivity to DNA damaging agent (IR, MMS) (HCT116 and MCF10A cells): MMS sensitive | IC50 (MCF10A cells [2]; [5]): 6 µM | IC50 (MCF10A cells [2]; [6]): 6 µM | MMS: Ratios of IC50 MCF10A (MCF10A cells [3]): 1.8 | Radiosensitizers: IC50 ratios MCF10A (MCF10A cells [3]): 1 | % growth inhibition MCF10A [2 Gy] 5-15 uM (MCF10A cells [3]): ✓ | IC50 (HCT116 cells [4]; [7]): 22 µM | IC50 (HCT116 cells [4]; [8]): 22 µM

O=C1Nc2ccccc2Oc2cc([N+](=O)[O-])cc([N+](=O)[O-])c21 [Compound 180]
IC50 (MCF10A cells [2]; [5]): 3 µM | IC50 (MCF10A cells [2]; [6]): 3 µM | MMS: Ratios of IC50 MCF10A (MCF10A cells [3]): 1 | IC50 (HCT116 cells [4]; HCT-116, read-out: IC50 HCT116 (head without unit)): 3 µM | IC50 (HCT116 cells [4]; [7]): 12 µM

CS(=O)(=O)NNC(=O)C(=O)NNc1ccccc1 [Compound 184]
inhibition of cell proliferation of HCT116 at 50 μM (MTT) (HCT116 cells [4]; 50 μM, numbers printed under HCT116 in r92-r106: 16, 64, 124, 130, 165, 184 (30%), 195, 197, 198, 212): 184 (30%)

Nc1nc(S)nc(O)c1/N=C/c1ccccc1 [Compound 189]
inhibition of DNA joining by T4 DNA ligase (T4 DNA ligase): not significantly inhibited | cell survival: sensitivity to DNA damaging agent (IR, MMS) (HCT116 and MCF10A cells): IR sensitive

O=C(c1ccc(O)cc1)c1ccccc1O [Compound 200]
IC50 ratios of non- and 3-AB treated cells HCT116 (HCT116 cells [1]): ID (1) | MMS: Ratios of IC50 HCT116 (HCT116 cells [1]): ID (1) | IC50 (MCF10A cells [2]; [5]): ~5 µM | IC50 (MCF10A cells [2]; [6]): 10 to 150 µM | IC50 ratios of non- and 3-AB treated cells MCF10A (MCF10A cells [3]): ID (1.2) | MMS: Ratios of IC50 MCF10A (MCF10A cells [3]): ID (1) | IC50 (HCT116 cells [4]; [7]): ~10 µM | IC50 (HCT116 cells [4]; [8]): 10 to 150 µM
